Assay results from patent publication US11903929B2, “Method for inhibiting dengue virus infection” (FLORIDA STATE UNIVERSITY RESEARCH FOUNDATION, INC., priority 2018, dated 2024).
Where two headings read alike, the source gives them in different places. Where a SMILES comes first, the peptide text is derived from it. [ ]: non-standard residue; d: D form. ξ: configuration not given here. ξLac(3-iPr) = CC(C)CC(O)C(=O)O; NMeV = CN[CH](C(=O)O)C(C)C; NMeA = CN[CH](C)C(=O)O; βAla = NCCC(=O)O

What was measured:
dengue virus = assay: Western blot analysis of viral protein levels in dengue virus-infected cells; type: cell-based
Procedure: These 19 compounds were further validated for antiviral activity by a Zika viral production assay and also by analyzing protein production via Western blot in dengue virus-infected cells. Human glioblastoma cells were treated with individual compounds for 1 hour prior to infection with Zika virus or dengue virus for 24 hours. After 24 hours, cellular lysate was harvested for Western blot analysis of viral protein levels (DENV infection), or supernatant collected and used to infect Vero cells in an infectious viral titer assay (ZIKV infection).

Zika virus = assay: Zika viral production assay (infectious viral titer assay on Vero cells); type: cell-based; conditions: read-out: Anti-ZIKV activity IC50
[1] = 1 uM, SNB-19 human glioblastoma cells, compound 1 hour prior to infection, 24 hours infection, Western blot of viral protein
[2] = 10 uM, SNB-19 human glioblastoma cells, compound 1 hour prior to infection, 24 hours infection, Western blot of viral protein
[3] = Zika virus, human glioblastoma cells treated 1 hour prior to infection, 24 hours, supernatant titered on Vero cells, values in E-notation, unit inferred
[4] = Zika virus, human glioblastoma cells treated 1 hour prior to infection, 24 hours, supernatant titered on Vero cells, μM

| SMILES | Anti-DENV Activity at 1 uM (SNB-19 cells) (dengue virus; [1]) | Anti-DENV Activity at 10 uM (SNB-19 cells) (dengue virus; [2]) | IC50 (Zika virus; [3]) | other results |
| --- | --- | --- | --- | --- |
| CCCOc1ccc2nc(NC(=O)OC)[nH]c2c1 [NCGC00018238-09, methyl (6-propoxy-1H-benzo[d]imidazol-2 - yl)carbamate] | No | No | 0.000233 µM | – |
| COc1cc2c(c(OC)c1OC)-c1ccc(OC)c(=O)cc1[C@@H](NC(C)=O)CC2 [NCGC00025125-18, N-[(7S)-1,2,3,10-tetramethoxy-9-oxo-6,7-dihydro-5H-benzo[a]heptalen-7-yl]acetamide] | No | No | – | – |
| COc1ccccc1-c1nnc2sc(-c3ccc(N(C)C)cc3)nn12 [NCGC00071621-03, 4-(3-(2-methoxyphenyl)-[1,2,4]triazolo[3,4-b][1,3,4]thiadiazol-6-yl)-N,N-dimethylaniline] | – | – | – | Anti-DENV Activity at 1 uM (SNB-19 cells) (dengue virus; 1 uM): No; Anti-DENV Activity at 10 uM (SNB-19 cells) (dengue virus; 10 uM): No; IC50 (Zika virus; Zika virus, Vero): > 30 µM |
| O=C(Nc1cccnc1)c1cccs1 [NCGC00072088-02, N-(pyridin-3-yl)thiophene-2-carboxamide] | No | Yes | 2.35 µM | – |
| CCOc1ccc(N2C(=O)c3[nH]nc(-c4cccs4)c3C2c2cccc(F)c2)cc1 (centres unmarked) [NCGC00102779-01, 5-(4-ethoxyphenyl)-4-(3-fluorophenyl)-3-(thiophen-2-yl)-4,5-dihydropyrrolo[3,4-c]pyrazol-6(lH)-one] | No | No | 9.24 µM | – |
| COCCn1c(=O)[nH]c2cc(C(=O)NCc3ccccc3Cl)ccc2c1=O [NCGC00104879-01, N-(2-chlorobenzyl)-3-(2-methoxyethyl)-2,4-dioxo-1,2,3,4-tetrahydroquinazoline-7-carboxamide] | No | No | – | IC50 (Zika virus; [4]): > 30 µM |
| COc1cc(C2CC(=O)Nc3cc4c(cc32)OCCO4)cc(Br)c1OC (centres unmarked) [NCGC00107055-01, 9-(3-bromo-4,5-dimethoxyphenyl)-2,3,8,9-tetrahydro-[1,4]dioxino[2,3-g]quinolin-7(6H)-one] | No | No | 0.0285 µM | – |
| CCOC(=O)c1ccc(N2C(=O)c3[nH]nc(-c4ccc(OC)cc4)c3C2c2ccc(C)cc2)cc1 (centres unmarked) [NCGC00108525-01, ethyl 4-(3-(4-methoxyphenyl)-6-oxo-4-(p-tolyl)-4,6-dihydropyrrolo[3,4-c]pyrazol-5(1H)-yl)benzoate] | No | Yes | – | IC50 (Zika virus; Zika virus, Vero): 0.137 µM |
| CCOC(=O)c1ccc(N2C(=O)c3[nH]nc(-c4ccco4)c3C2c2ccc(C)cc2)cc1 (centres unmarked) [NCGC00108581-01, ethyl 4-(3-(furan-2-yl)-6-oxo-4-(p-tolyl)-4,6-dihydropyrrolo[3,4-c]pyrazol-5(1H)-yl)benzoate] | No | Yes | 2.42 µM | – |
| CC1=Nc2cc(C(=O)NCc3ccccc3Cl)ccc2Sc2c(C)ccc(C)c21 [NCGC00112058-01, N-(2-chlorobenzyl)-1,4,11-trimethyldibenzo[b,f][1,4]thiazepine-8-carboxamide] | No | No | – | IC50 (Zika virus; [4]): > 30 µM |
| COC(=O)c1cc2occc2n1Cc1nc(-c2ccc(C)cc2)oc1C [NCGC00113159-01, methyl 4-[[5-methyl-2-(4-methylphenyl)-1,3-oxazol-4-yl]methyl]furo[3,2-b]pyrrole-5 - carboxylate] | No | No | – | IC50 (Zika virus; [4]): > 30 µM |
| CC(C)(C)c1ccc(C(=O)Nc2ccc3c(c2)CCCN3C(=O)c2cccs2)cc1 [NCGC00131231-01, 4-(tert-butyl)-N-(1-(thiophene-2-carbonyl)-1,2,3,4-tetrahydroquinolin-6-yl)benzamide] | No | No | 7.6 µM | – |
| CCC(C)C1NC(=O)C2CCCN2C(=O)C(CC(C)C)OC(=O)CCNC(=O)C(C)N(C)C(=O)C(C(C)C)N(C)C1=O (centres unmarked) [NCGC00169957-03, 3-(sec-butyl)-16-isobutyl-6-isopropyl-5,8,9-trimethyldodecahydropyrrolo[1,2-d][l]oxa[4,7,10,13,16] pentaazacyclononadecine-1,4,7,10,14,17(11H,16H)-hexaone] (cyclo([ξLac(3-iPr)]PI[NMeV][NMeA][βAla]); configuration not given here) | – | – | – | Anti-DENV Activity at 1 uM (SNB-19 cells) (dengue virus; 1 uM): No; Anti-DENV Activity at 10 uM (SNB-19 cells) (dengue virus; 10 uM): Yes; IC50 (Zika virus; Zika virus, Vero): 0.613 µM |
| CC(=O)OC[C@]12CCC(C)=C[C@H]1O[C@@H]1[C@H](O)[C@@H](OC(C)=O)[C@@]2(C)[C@]12CO2 [NCGC00179895-03, ((2S,2′R,3′R,4′S,5′S,5a′R,9a′R)-4′-acetoxy-3′-hydroxy-5′,8′-dimethyl-2′,3′,4′,5′,7′,9a′-hexahydrospiro[oxirane-2,10′-[2,5]methanobenzo[b]oxepin]-5a′(6′H) - yl)methyl acetate] | – | – | – | Anti-DENV Activity at 1 uM (SNB-19 cells) (dengue virus): Yes; Anti-DENV Activity at 10 uM (SNB-19 cells) (dengue virus): Yes |
| O=c1nc[nH]c2c1ccn2C1OC(CO)C(O)C1O (centres unmarked) [NCGC00246910-02, 7-(3,4-dihydroxy-5-(hydroxymethyl)tetrahydrofuran-2-yl)-1,7-dihydro-4H-pyrrolo[2,3-d]pyrimidin-4-one] | No | Yes | 0.27 µM | – |
| O=c1[nH]c(=O)n(C2C[C@@H](O)[C@@H](CO)O2)cc1F (stereo partly drawn) [NCGC00263862-02, 5-fluoro-l-((4R,5R)-4-hydroxy-5-(hydroxymethyl)tetrahydrofuran-2-yl)pyrimidine-2,4(1H,3H)-dione] | No | No | 0.0165 µM | – |
| O=C1N[C@@H]2C(=C[C@H](O)[C@@H](O)[C@H]2O)c2cc3c(c(O)c21)OCO3 [NCGC00357393-02, (2S,3R,4S,4aR)-2,3,4,7-tetrahydroxy-3,4,4a,5-tetrahydro-[1,3]dioxolo[4,5-j] phenanthridin-6(2H)-one] | – | – | – | Anti-DENV Activity at 1 uM (SNB-19 cells) (dengue virus; 1 uM): Yes; Anti-DENV Activity at 10 uM (SNB-19 cells) (dengue virus; 10 uM): Yes; IC50 (Zika virus): 0.000674 µM |
| CC[C@H](C)[C@@H]([C@@H](CC(=O)N1CCC[C@H]1[C@H](OC)[C@@H](C)C(=O)N[C@@H](Cc1ccccc1)c1nccs1)OC)N(C)C(=O)[C@@H](NC(=O)[C@H](C(C)C)N(C)C)C(C)C [NCGC00378623-01, (S)-2-((S)-2-(dimethylamino)-3-methylbutanamido)-N-((3R,4S,5S)-3-methoxy-1-((S)-2-((1R,2R)-1-methoxy-2-methyl-3-oxo-3-(((S)-2-phenyl-1-(thiazol-2-yl)ethyl)amino)propyl)pyrrolidin-1-yl)-5-methyl-1-oxoheptan-4-yl)-N,3-dimethylbutanamide] | No | No | – | – |
| CC(=O)OC[C@]12C[C@H](OC(=O)CC(C)C)C(C)=C[C@H]1O[C@@H]1[C@H](O)[C@@H](OC(C)=O)[C@@]2(C)[C@]12CO2 [NCGC00387651-01, (2S,2′R,3′R,4′S,5′S,5a′R,7′S,9a′R)-4′-acetoxy-5a′-(acetoxymethyl)-3′-hydroxy-5′,8′-dimethyl-2′,3′,4′,5′,5a′,6′,7′,9a′-octahydrospiro[oxirane-2,10′-[2,5]methanobenzo[b]oxepin]-7′-yl 3 - methylbutanoate] | – | – | – | Anti-DENV Activity at 1 uM (SNB-19 cells) (dengue virus): Yes; Anti-DENV Activity at 10 uM (SNB-19 cells) (dengue virus): Yes |
